Results from US9751840B2, “R-7-(3-aminomethyl-4-methoxyimino-3-methyl-pyrrolidin-1-yl)-1-cyclopropyl-6-fluoro-4-oxo-acid and L-aspartic acid salt, process for the preparation thereof and pharmaceutical composition comprising the same for antimicrobial” (ARIBIO CO. LTD., priority 2009, dated 2017).
In brackets after ≈: the same amount, converted by molar mass. Like-named read-outs stand apart in the source and are kept apart here.

Assays:
[1] = Stability test in distilled water; type: physicochemical; settings: 30 mg in 100 ml distilled water
[2] = In vivo tissue distribution test; parameters: species or system ICR mice; settings: ICR, mouse, spleen, po, 100 mg/kg; read-out: P ratio Spleen
[3] = In vivo pharmacokinetic test; parameters: species or system SD rats; settings: rats
Excerpt: The L-aspartate and hydrochloride according to the present invention were orally or intravenously administered to SD rats, respectively and blood samples were collected at a predetermined time to compare in vivo pharmacokinetics.
Then, Cmax: maximum drug concentration, Tmax: maximum drug concentration time, T1/2: drug half-life, AUCO-t: area under the plasma concentration-time curve from time zero to t hours, and AUCO-inf: area under the plasma concentration-time curve from time zero to infinity.

[4] = Solubility test; type: physicochemical
[5] = In vivo tissue distribution test; parameters: species or system ICR mice; settings: mouse, po; for Kp: ICR, 100 mg/kg
Experimental: An in vivo tissue distribution test was performed in order to confirm the degree of drug distribution of the L-aspartate and hydrochloride according to the present invention in each organ. After 8-week-old ICR mice were purchased and adapted in the laboratory, each salt was orally administered to the mouse at a dose of 100 mg/kg. The mice were bled and sacrificed at a predetermined time and each organ was drawn to measure the concentration in each organ. After the administration of hydrochloride and L-aspartate, each organ concentration over time, the area under the corresponding time-concentration curve, and the ratio of permeation into tissue were shown in Tables 5 and 6.
Then, P ratio is a ratio of permeation into muscle and calculated as intramuscular AUC/intraplasmic AUC.

[6] = tested on: polychromatic erythrocyte with one or more nuclei (MNPCE); assay: In vivo genotoxicity, micronucleus test; settings: male mice, twice intraperitoneal, 30, 15, 7.5 mg/kg
Excerpt: The following study performed to obtain in vivo genotoxicities, micronucleus test of L-aspartate and hydrochloric acid salt in male mice to the following procedure.

[7] = tested on: Male ICR mice; assay: Single dose toxicity in mice (LD50); settings: single intraperitoneal dose, observed 14 days
Experimental: The following experiment was performed in order to observe the degree of toxicity of the L-aspartate according to the present invention.
Male ICR mice were used as experimental animals. 5 male ICR mice were divided into 6 dose groups, respectively and fasted except for water for 24 hours.

[8] = SD, rat, plasma, iv, i.v. 10 mg/kg
[9] = SD, rat, plasma, po, p.o. 100 mg/kg
[10] = male, testicle, ICR mice, p.o. 100 mg/kg, read-out: Testicle concentration
[11] = brain, ICR mice, p.o. 100 mg/kg, read-out: Brain concentration
[12] = heart, ICR mice, p.o. 100 mg/kg, read-out: Heart concentration
[13] = kidney, ICR mice, p.o. 100 mg/kg, read-out: Kidney concentration
[14] = liver, ICR mice, p.o. 100 mg/kg, read-out: Liver concentration
[15] = lung, ICR mice, p.o. 100 mg/kg, read-out: Lung concentration
[16] = muscle, ICR mice, p.o. 100 mg/kg, read-out: Muscle concentration
[17] = plasma, ICR mice, p.o. 100 mg/kg, read-out: Plasma concentration
[18] = spleen, ICR mice, p.o. 100 mg/kg, read-out: Spleen concentration
[19] = testicle, ICR mice, p.o. 100 mg/kg, read-out: Testicle concentration
[20] = thymus, ICR mice, p.o. 100 mg/kg, read-out: Thymus concentration

Q: Which results are given for CO/N=C1/CN(c2nc3c(cc2F)c(=O)c(C(=O)O)cn3C2CC2)C[C@@]1(C)CN [L-aspartate (Example 1)]?
A: Content (%) 60? (after 3 weeks) ([1]; 60?, 3 weeks): 87.4%; Content (%) Initial ([1]; initial): 98.1%; Content (%) Room temperature (after 3 weeks) ([1]; room temperature, 3 weeks): 98.0%; Kp [2]: 8.82; AUC(0-inf) [3, 8]: 9320 ± 280 ng·h/mL; AUC(0-t) [3, 8]: 7520 ± 220 ng·h/mL; Cmax [3, 8]: 4180 ± 290 ng/mL; Tmax [3, 8]: 0 h; half-life [3, 8]: 2.05 ± 1.55 h; AUC(0-t) [3, 9]: 52700 ± 28700 ng·h/mL; Cmax [3, 9]: 9080 ± 4500 ng/mL; Tmax [3, 9]: 2.13 ± 0.63 h; BA (%) ([3]; p.o. 100 mg/kg, calculated by ratio of AUC0-t): 70.05%; Solubility relative to the hydrochloride ([4]; distilled water): about 2 times; solubility ([4]; room temperature, water): 190 mg/mL (≈ 470 mM); Kp ([5]; brain, read-out: P ratio Brain): 0.27; Kp ([5]; heart, read-out: P ratio Heart): 4.28; Kp ([5]; kidney, read-out: P ratio Kidney): 7.44; Kp ([5]; liver, read-out: P ratio Liver): 11.2; Kp ([5]; lung, read-out: P ratio Lung): 6.01; Kp ([5]; muscle, read-out: P ratio Muscle): 3.87; Kp ([5]; thymus, read-out: P ratio Thymus): 4.96; Kp ([5]; male, testicle, read-out: P ratio Testicle): 1.75; concentration at 0.5 h [5, 10]: 4940 ng/g; concentration at 1 h [5, 10]: 8820 ng/g; concentration at 8 h [5, 10]: 6970 ng/g; concentration at 0.5 h [5, 11]: 2280 ng/g; concentration at 1 h [5, 11]: 2550 ng/g; concentration at 1.5 h [5, 11]: 2340 ng/g; concentration at 2 hr [5, 11]: 2570 ng/g; concentration at 3 h [5, 11]: 2020 ng/g; concentration at 5 h [5, 11]: 1520 ng/g; concentration at 8 h [5, 11]: 330 ng/g; concentration at 0.5 h [5, 12]: 47200 ng/g; concentration at 1 h [5, 12]: 58000 ng/g; concentration at 1.5 hr [5, 12]: 50000 ng/g; concentration at 2 hr [5, 12]: 36700 ng/g; concentration at 3 h [5, 12]: 27700 ng/g; concentration at 5 h [5, 12]: 1330 ng/g; concentration at 8 h [5, 12]: 8720 ng/g; concentration at 0.5 h [5, 13]: 79200 ng/g; concentration at 1 h [5, 13]: 79200 ng/g; concentration at 1.5 h [5, 13]: 77400 ng/g; concentration at 2 hr [5, 13]: 62200 ng/g; concentration at 3 h [5, 13]: 48800 ng/g; concentration at 5 h [5, 13]: 34000 ng/g; concentration at 8 h [5, 13]: 20200 ng/g; concentration at 0.5 h [5, 14]: 128000 ng/g; concentration at 1 h [5, 14]: 114000 ng/g; concentration at 1.5 h [5, 14]: 118000 ng/g; concentration at 2 hr [5, 14]: 85400 ng/g; concentration at 3 h [5, 14]: 70800 ng/g; concentration at 5 h [5, 14]: 57400 ng/g; concentration at 8 h [5, 14]: 26600 ng/g; concentration at 0.5 h [5, 15]: 76300 ng/g; concentration at 1 h [5, 15]: 70100 ng/g; concentration at 1.5 h [5, 15]: 71500 ng/g; concentration at 2 hr [5, 15]: 52700 ng/g; concentration at 3 h [5, 15]: 38700 ng/g; concentration at 5 h [5, 15]: 24500 ng/g; concentration at 8 h [5, 15]: 11600 ng/g; concentration at 0.5 h [5, 16]: 38000 ng/g; concentration at 1 h [5, 16]: 39600 ng/g; concentration at 1.5 h [5, 16]: 37400 ng/g; concentration at 2 hr [5, 16]: 36700 ng/g; concentration at 3 h [5, 16]: 28800 ng/g; concentration at 5 h [5, 16]: 18000 ng/g; concentration at 8 h [5, 16]: 6930 ng/g; concentration at 0.5 h [5, 17]: 11600 ng/mL; concentration at 1 h [5, 17]: 12200 ng/mL; concentration at 1.5 h [5, 17]: 10700 ng/mL; concentration at 2 hr [5, 17]: 8470 ng/mL; concentration at 3 h [5, 17]: 6300 ng/mL; concentration at 5 h [5, 17]: 4620 ng/mL; concentration at 8 h [5, 17]: 1870 ng/mL; AUC(0-t) ([5]; plasma, ICR mice, p.o. 100 mg/kg, read-out: AUC0-t Plasma): 47400 ng·h/mL; concentration at 0.5 h [5, 18]: 91600 ng/g; concentration at 1 h [5, 18]: 98100 ng/g; concentration at 1.5 hr [5, 18]: 84900 ng/g; concentration at 2 hr [5, 18]: 67300 ng/g; concentration at 3 h [5, 18]: 57600 ng/g; concentration at 5 h [5, 18]: 43700 ng/g; concentration at 8 h [5, 18]: 23400 ng/g; concentration at 1.5 hr [5, 19]: 10200 ng/g; concentration at 2 hr [5, 19]: 12900 ng/g; concentration at 3 h [5, 19]: 14800 ng/g; concentration at 5 h [5, 19]: 11500 ng/g; concentration at 0.5 h [5, 20]: 26500 ng/g; concentration at 1 h [5, 20]: 48100 ng/g; concentration at 1.5 hr [5, 20]: 48800 ng/g; concentration at 2 hr [5, 20]: 40100 ng/g; concentration at 3 h [5, 20]: 39800 ng/g; concentration at 5 h [5, 20]: 25900 ng/g; concentration at 8 h [5, 20]: 12800 ng/g; MNPCE number vs intact control [6]: not detected significant change; Lethal dose 50 [7]: 209 mg/kg
